We go through ten compounds from patent publication US11117930B2, “Peptide inhibitors of transcription factor aggregation” (ADRX, INC., priority 2017, dated 2021).

Read-outs that look alike come from different tables or passages of the source. Non-standard residues stand in square brackets, D forms with d. Residues, ends and D or L forms follow the SMILES beside them. No end group written: not given here.

Series [1] in a line: Protein binding in human serum. Format: in vitro ADME. The conditions noted are these: CPP linked peptides.
For the next series, the system named is OVCAR3. The series is classed as cell-based. The conditions noted are these: 24 h. As for the experimental part:
(§1) To render the inhibitors cell permeable, the peptides are fused to either a nine-residue poly L-Arg tag or a nine-residue poly D-Arg tag, through one of several three-residue linkers, either L-RPI, D-RPI, or D-GGG. Cancer cell lines, e.g. OVCAR-3, and Detroit 562 are treated with the peptide conjugates for 24 hours by the following method. OVCAR3 and Detroit-562 cells are grown in ATCC recommended growth media. The peptides were made in a 4 mM stock. Cells are plated in 96-well flat bottom clear plates at 7000 cells/well. After 24 hours, compounds are serially diluted in one-third [starting at 33 μM] or one-half [starting at 30 μM] dilutions in PrEGM media (Lonza). Growth media was removed from the wells and compound in PrEGM was added to 100 ul final volume. 24 hours post-compound addition cell metabolism was measured by addition of 20 μl MTS solution (Promega, cell-titer 96 aqueous). Absorbance was read at 490 nm following a 2 hour incubation and data was processed in Prism Graphpad to generate EC50 values.

In another series the test system is Detroit-562. Format: cell-based. The conditions noted are these: 24 h. As for the experimental part:
as §1

Another series is described as follows: Stability in human serum. Particulars: CPP linked peptides, read-out: Stability in Human Serum (t1/2). Format: in vitro ADME.

Usually fraction unbound stands for the share of the substance not bound to proteins or other matrix. A low value points to extensive binding. For orientation: EC50 means the midpoint of the concentration-response curve. Lower therefore signals higher potency in that assay. On to `CC[C@H](C)[C@H](NC(=O)[C@@H]1CCCN1C(=O)[C@H](CCCNC(=N)N)NC(=O)[C@H](CCCNC(=N)N)NC(=O)[C@H](CCCNC(=N)N)NC(=O)[C@H](CCCNC(=N)N)NC(=O)[C@H](CCCNC(=N)N)NC(=O)[C@H](CCCNC(=N)N)NC(=O)[C@H](CCCNC(=N)N)NC(=O)[C@H](CCCNC(=N)N)NC(=O)[C@H](CCCNC(=N)N)NC(=O)[C@@H](N)CCCNC(=N)N)C(=O)N[C@H](CCCCN)C(=O)N[C@H](Cc1ccccc1)C(=O)N[C@H](CCCNC(=N)N)C(=O)N[C@H](Cc1ccccc1)C(=O)N[C@H](Cc1ccc(O)cc1)C(=O)N[C@H](Cc1c[nH]cn1)C(=O)N[C@H](CCCNC(=N)N)C(=O)O` [RRRRRRRRRRPIkfrfyhr] (H-RRRRRRRRRRPI[dK][dF][dR][dF][dY][dH][dR]-OH; N-terminus and C-terminus assumed), for which, in series [1], the fraction unbound is 0.19. For the same compound, the EC50 in the series with OVCAR3 was found to be 11 µM; in the series with Detroit-562, 15 µM. The half-life in “Stability in human serum” was determined as 4.42 h.

In the case of `CC[C@H](C)[C@H](NC(=O)[C@@H]1CCCN1C(=O)[C@H](CCCNC(=N)N)NC(=O)[C@H](CCCNC(=N)N)NC(=O)[C@H](CCCNC(=N)N)NC(=O)[C@H](CCCNC(=N)N)NC(=O)[C@H](CCCNC(=N)N)NC(=O)[C@H](CCCNC(=N)N)NC(=O)[C@H](CCCNC(=N)N)NC(=O)[C@H](CCCNC(=N)N)NC(=O)[C@H](CCCNC(=N)N)NC(=O)[C@@H](N)CCCNC(=N)N)C(=O)N[C@H](CCC(N)=O)C(=O)N[C@H](CCC(N)=O)C(=O)N[C@H](CCCNC(=N)N)C(=O)N[C@H](Cc1ccc(O)cc1)C(=O)N[C@H](Cc1ccc(O)cc1)C(=O)N[C@H](Cc1c[nH]c2ccccc12)C(=O)N[C@H](CCCNC(=N)N)C(=O)O` [RRRRRRRRRRPIqqryywr] (H-RRRRRRRRRRPI[dQ][dQ][dR][dY][dY][dW][dR]-OH; N-terminus and C-terminus assumed), the fraction unbound in series [1] is 0.18. The results for the EC50 in the series with OVCAR3 and with Detroit-562 were 22 µM and 12 µM, respectively. The half-life in “Stability in human serum” was determined as 10 h.

As for `CC[C@H](C)[C@H](NC(=O)[C@@H]1CCCN1C(=O)[C@H](CCCNC(=N)N)NC(=O)[C@H](CCCNC(=N)N)NC(=O)[C@H](CCCNC(=N)N)NC(=O)[C@H](CCCNC(=N)N)NC(=O)[C@H](CCCNC(=N)N)NC(=O)[C@H](CCCNC(=N)N)NC(=O)[C@H](CCCNC(=N)N)NC(=O)[C@H](CCCNC(=N)N)NC(=O)[C@H](CCCNC(=N)N)NC(=O)[C@@H](N)CCCNC(=N)N)C(=O)N[C@H](CCCNC(=N)N)C(=O)N[C@H](Cc1ccccc1)C(=O)N[C@H](Cc1ccc(O)cc1)C(=O)N[C@H](Cc1ccc(O)cc1)C(=O)N[C@H](Cc1c[nH]cn1)C(=O)N[C@H](CCCNC(=N)N)C(=O)N[C@H](CCCNC(=N)N)C(=O)O` [RRRRRRRRRRPIrfyyhrr] (H-RRRRRRRRRRPI[dR][dF][dY][dY][dH][dR][dR]-OH; N-terminus and C-terminus assumed), in series [1], the fraction unbound came to 0.09. Also, the EC50 in the series with OVCAR3 amounted to 16 µM; in the series on Detroit-562 it was 9 µM. Further, the half-life in “Stability in human serum” was determined as 0.95 h.

In turn, `CC[C@H](C)[C@H](NC(=O)[C@@H]1CCCN1C(=O)[C@H](CCCNC(=N)N)NC(=O)[C@H](CCCNC(=N)N)NC(=O)[C@H](CCCNC(=N)N)NC(=O)[C@H](CCCNC(=N)N)NC(=O)[C@H](CCCNC(=N)N)NC(=O)[C@H](CCCNC(=N)N)NC(=O)[C@H](CCCNC(=N)N)NC(=O)[C@H](CCCNC(=N)N)NC(=O)[C@H](CCCNC(=N)N)NC(=O)[C@@H](N)CCCNC(=N)N)C(=O)N[C@H](Cc1ccc(O)cc1)C(=O)N[C@H](CCC(N)=O)C(=O)N[C@H](Cc1c[nH]c2ccccc12)C(=O)N[C@H](Cc1ccc(O)cc1)C(=O)N[C@H](CCCNC(=N)N)C(=O)N[C@H](Cc1c[nH]c2ccccc12)C(=O)N[C@H](CCC(N)=O)C(=O)O` [RRRRRRRRRRPIyqwyrwq] (H-RRRRRRRRRRPI[dY][dQ][dW][dY][dR][dW][dQ]-OH; N-terminus and C-terminus assumed) gave a fraction unbound in series [1] of 0.02. Further, the EC50 was 10 µM with OVCAR3 and 13 µM in the series with Detroit-562. In addition, in “Stability in human serum”, the half-life was 0.833 h.

In turn, `N=C(N)NCCC[C@@H](N)C(=O)N[C@H](CCCNC(=N)N)C(=O)N[C@H](CCCNC(=N)N)C(=O)N[C@H](CCCNC(=N)N)C(=O)N[C@H](CCCNC(=N)N)C(=O)N[C@H](CCCNC(=N)N)C(=O)N[C@H](CCCNC(=N)N)C(=O)N[C@H](CCCNC(=N)N)C(=O)N[C@H](CCCNC(=N)N)C(=O)NCC(=O)NCC(=O)NCC(=O)N[C@H](Cc1ccc(O)cc1)C(=O)N[C@H](CCC(N)=O)C(=O)N[C@H](Cc1c[nH]c2ccccc12)C(=O)N[C@H](Cc1ccc(O)cc1)C(=O)N[C@H](CCCNC(=N)N)C(=O)N[C@H](Cc1c[nH]c2ccccc12)C(=O)N[C@H](CCC(N)=O)C(=O)O` [rrrrrrrrrgggyqwyrwq] (H-[dR][dR][dR][dR][dR][dR][dR][dR][dR]GGG[dY][dQ][dW][dY][dR][dW][dQ]-OH; N-terminus and C-terminus assumed) gave a fraction unbound in series [1] of 0.11. Further, the EC50 in the series on OVCAR3 was found to be 6 µM; with Detroit-562 it was 8 µM. For the same compound, in “Stability in human serum” (cells given in hr), the half-life was greater than 24 h.

In series [1], `CC[C@@H](C)[C@@H](NC(=O)[C@H]1CCCN1C(=O)[C@@H](CCCNC(=N)N)NC(=O)[C@@H](CCCNC(=N)N)NC(=O)[C@@H](CCCNC(=N)N)NC(=O)[C@@H](CCCNC(=N)N)NC(=O)[C@@H](CCCNC(=N)N)NC(=O)[C@@H](CCCNC(=N)N)NC(=O)[C@@H](CCCNC(=N)N)NC(=O)[C@@H](CCCNC(=N)N)NC(=O)[C@@H](CCCNC(=N)N)NC(=O)[C@H](N)CCCNC(=N)N)C(=O)N[C@H](Cc1c[nH]cn1)C(=O)N[C@H](CC(C)C)C(=O)N[C@H](CCCNC(=N)N)C(=O)N[C@@H](C(=O)N[C@H](Cc1c[nH]c2ccccc12)C(=O)N[C@H](CCCNC(=N)N)C(=O)N[C@H](CC(N)=O)C(=O)O)[C@H](C)CC` [rrrrrrrrrrpihlriwrn] (H-[dR][dR][dR][dR][dR][dR][dR][dR][dR][dR][dP][dI][dH][dL][dR][dI][dW][dR][dN]-OH; N-terminus and C-terminus assumed) gave an unbound share (fraction unbound) of 0.05. Further, the EC50 in the series with OVCAR3 and in the series on Detroit-562 was 4 µM each time. Further, in “Stability in human serum” (cells given in hr), the half-life is greater than 24 h.

Turning to `CC[C@@H](C)[C@@H](NC(=O)[C@H]1CCCN1C(=O)[C@@H](CCCNC(=N)N)NC(=O)[C@@H](CCCNC(=N)N)NC(=O)[C@@H](CCCNC(=N)N)NC(=O)[C@@H](CCCNC(=N)N)NC(=O)[C@@H](CCCNC(=N)N)NC(=O)[C@@H](CCCNC(=N)N)NC(=O)[C@@H](CCCNC(=N)N)NC(=O)[C@@H](CCCNC(=N)N)NC(=O)[C@@H](CCCNC(=N)N)NC(=O)[C@H](N)CCCNC(=N)N)C(=O)N[C@H](Cc1c[nH]cn1)C(=O)N[C@H](CCC(N)=O)C(=O)N[C@H](CCCNC(=N)N)C(=O)N[C@H](CCC(N)=O)C(=O)N[C@H](Cc1ccc(O)cc1)C(=O)N[C@H](CCC(N)=O)C(=O)N[C@H](CCCNC(=N)N)C(=O)O` [rrrrrrrrrrpihqrqyqr] (H-[dR][dR][dR][dR][dR][dR][dR][dR][dR][dR][dP][dI][dH][dQ][dR][dQ][dY][dQ][dR]-OH; N-terminus and C-terminus assumed), in series [1], the fraction unbound is 0.88. The EC50 was determined as 27 µM in the series with OVCAR3 and 35 µM in the series on Detroit-562. In addition, the half-life in the series “Stability in human serum” (cells given in hr) is greater than 24 h.

In series [1], `CC[C@@H](C)[C@@H](NC(=O)[C@H]1CCCN1C(=O)[C@@H](CCCNC(=N)N)NC(=O)[C@@H](CCCNC(=N)N)NC(=O)[C@@H](CCCNC(=N)N)NC(=O)[C@@H](CCCNC(=N)N)NC(=O)[C@@H](CCCNC(=N)N)NC(=O)[C@@H](CCCNC(=N)N)NC(=O)[C@@H](CCCNC(=N)N)NC(=O)[C@@H](CCCNC(=N)N)NC(=O)[C@@H](CCCNC(=N)N)NC(=O)[C@H](N)CCCNC(=N)N)C(=O)N[C@H](CCCCN)C(=O)N[C@H](Cc1ccccc1)C(=O)N[C@H](CCCNC(=N)N)C(=O)N[C@H](Cc1ccccc1)C(=O)N[C@H](Cc1ccc(O)cc1)C(=O)N[C@H](Cc1c[nH]cn1)C(=O)N[C@H](CCCNC(=N)N)C(=O)O` [rrrrrrrrrrpikfrfyhr] (H-[dR][dR][dR][dR][dR][dR][dR][dR][dR][dR][dP][dI][dK][dF][dR][dF][dY][dH][dR]-OH) gave a fraction unbound of 0.14. Moreover, the figures for the half-maximal effective concentration (EC50) in the series with OVCAR3 and with Detroit-562 were 4 µM and 5 µM, respectively. Also, the half-life in “Stability in human serum” (cells given in hr) was greater than 24 h.

In series [1], `CC[C@@H](C)[C@@H](NC(=O)[C@H]1CCCN1C(=O)[C@@H](CCCNC(=N)N)NC(=O)[C@@H](CCCNC(=N)N)NC(=O)[C@@H](CCCNC(=N)N)NC(=O)[C@@H](CCCNC(=N)N)NC(=O)[C@@H](CCCNC(=N)N)NC(=O)[C@@H](CCCNC(=N)N)NC(=O)[C@@H](CCCNC(=N)N)NC(=O)[C@@H](CCCNC(=N)N)NC(=O)[C@@H](CCCNC(=N)N)NC(=O)[C@H](N)CCCNC(=N)N)C(=O)N[C@H](CCCCN)C(=O)N[C@H](Cc1c[nH]c2ccccc12)C(=O)N[C@H](CCCNC(=N)N)C(=O)N[C@H](Cc1c[nH]c2ccccc12)C(=O)N[C@H](Cc1ccc(O)cc1)C(=O)N[C@H](CCCNC(=N)N)C(=O)N[C@H](CCCNC(=N)N)C(=O)O` [rrrrrrrrrrpikwrwyrr] (H-[dR][dR][dR][dR][dR][dR][dR][dR][dR][dR][dP][dI][dK][dW][dR][dW][dY][dR][dR]-OH; N-terminus and C-terminus assumed) showed a fraction unbound of 0.06. Moreover, the EC50 came out at 4 µM in the series with OVCAR3 and 5 µM with Detroit-562. In the series “Stability in human serum” (cells given in hr), the half-life was greater than 24 h.

For PRRRRRRRRRRPIWTIKLWHP, the values for the EC50 in the series with OVCAR3 and with Detroit-562 were 4 µM and 6 µM, respectively.
